Key:
[1] = Storage Stability Test (Deliquescence); type: physicochemical; conditions: stored at 40° C. and 75% relative humidity; up to 2 months
Method: The hemifumarate dihydrate of Example 1, the ¾ fumarate dihydrate of Comparative Example 1 and the above compound (B) were stored under a condition of 40° C. and 75% relative humidity, and existence or nonexistence of the deliquescence was examined.

[2] = Storage Stability Test (Purity), purity by HPLC and appearance after storage; type: physicochemical; conditions: for Purity (%) after 2 months / Purity (%) at initial point: HPLC
Method: The hemifumarate dihydrate of Example 1 and the above compound (B) each were stored under a condition of 40° C. and 75% relative humidity and 60° C. in open vessels, and the storage stability for 2 months was examined. […] Measurement conditions of HPLC are as follows.
Detector: ultraviolet-visible absorption spectrophotometer, wavelength: 225 nm
Column: LUNA C18(2) (produced by Phenomenex), 5 μm, 4.6×250 mm, particle diameter 100×10^−10 m
Column Temperature: a constant temperature of around 25° C.
Sample concentration: 1 mg/mL
Mobile phase A: 10 mM dipotassium hydrogenphosphate aqueous solution adjusted to pH 7.8 with phosphoric acid
Mobile phase B: acetonitrile
Gradient of concentration:
0 minute: Mobile phase B=22%
30 minutes: Mobile phase B=22%
50 minutes: Mobile phase B=70%
60 minutes: Mobile phase B=70%
Range of area measurement: for 50 minutes from the start of analysis, except for the areas of the peak of fumaric acid (retention time 2 minutes), the peak of diethyl fumarate which is an impurity (retention time around 44 minutes) and the peak of the blank solution.

[3] = storage condition 40° C. and 75% relative humidity
[4] = storage condition 60° C. in open vessels

Purity (%) after 2 months [2, 3] | Purity (%) at initial point [2, 3] | Appearance after 2 months [2, 4] | Purity (%) after 2 months [2, 4] | Appearance at initial point [2, 4] | Purity (%) at initial point [2, 4] | SMILES | existence or nonexistence of the deliquescence [1]
 |  |  |  |  |  | Cc1cc(OCCCNCC(C)(C)C(N)=O)ccc1Cc1c(O[C@@H]2O[C@H](CO)[C@@H](O)[C@H](O)[C@H]2O)n[nH]c1C(C)C.O.O.O=C(O)/C=C/C(=O)O [Comparative Example 1, 3-(3-{4-[3-(β-D-Glucopyanosyloxy)-5-isopropyl-1H-pyazol-4-ylmethyl]-3-methyl-phenoxy}propylamino)-2,2-dimethylpropionamide ¾ fumarate dihydrate] | deliquescence was observed from the initial point of the experiment
99.6% | 99.5% | White | 99.0% | White | 99.5% | Cc1cc(OCCCNCC(C)(C)C(N)=O)ccc1Cc1c(O[C@@H]2O[C@H](CO)[C@@H](O)[C@H](O)[C@H]2O)n[nH]c1C(C)C.O=C(O)/C=C/C(=O)O [Example 1, 3-(3-{4-[3-(β-D-Glucopyranosyloxy)-5-isopropyl-1H-pyrazol-4-ylmethyl]-3-methylphenoxy}propylamino)-2,2-dimethylpropionamide hemifumarate dihydrate] | no deliquescence during 2 months
97.0% | 98.7% | Brown | 95.3% | White | 98.7% | Cc1cc(OCCCNCC(C)(C)C(N)=O)ccc1Cc1c(O[C@@H]2OC(CO)[C@@H](O)C(O)C2O)n[nH]c1C(C)C (stereo partly drawn) [compound (B), 3-(3-{4-[3-(β-D-Glucopyanosyloxy)-5-isopropyl-1H-pyazol-4-ylmethyl]-3-methylphenoxy}propylamino)-2,2-dimethylpropionamide] | deliquescence was observed from the initial point of the experiment
